Key:
[1] = system: U2OS cells expressing Per2-luciferase; test: Circadian rhythm of U2OS cells expressing Per2-luciferase; format: cell-based, human; settings: for Phenotype: Period lengthening: IKBKB inhibitors, all at 10 μM, n=5 (FIG. 1a); for Phenotype: phase of the circadian rhythm / Phenotype: Period shortening: Cay10576 15 μM, dinaciclib 10 nM, Cdk/Crk inhibitor 10 nM, n=4 (FIG. 1b, 1c)
Description: (a) IKBKB inhibitors. The concentration of all the inhibitors was 10 μM, n=5. (b) IKBKE inhibitors.
The above experiments were conducted with the drug added to the culture media from the beginning.

[2] = system: U2OS cells expressing Per2-luciferase; test: as above; format: cell-based, human
[3] = system: SCN explants; test: Circadian rhythm of SCN explants from Per2::Luciferase mice; format: cell-based, mouse; settings: applied at CT12; p<0.01, n=8
Description: U2OS cells are just cultured cells, while the SCN is the master clock in mammals. We dissected the SCN from mice expressing the Per2::Luciferase gene which faithfully reported the circadian rhythm (Yoo et al., 2004).

[4] = applied from the beginning of the assay

NC(=O)Nc1sc(-c2ccccc2)cc1C(N)=O [Ikk2 inhibitor vi, 2-[(aminocarbonyl)amino]-5-phenyl-3-thiophenecarboxamide]
Phenotype: Period lengthening [1]: Period lengthening, 1.25 ± 0.149 h

NC(=O)Nc1sc(-c2ccc(F)cc2)cc1C(N)=O [Ikk2 inhibitor iv, 2-(carbamoylamino)-5-(4-fluorophenyl)thiophene-3-carboxamide]
Phenotype: Period lengthening [1]: Period lengthening, 3.16 ± 0.167 h

O=C(Nc1cc(C(F)(F)F)cc(C(F)(F)F)c1)c1cc(Cl)ccc1O [Ikk2 inhibitor v, N-[3,5-bis(trifluoromethyl)phenyl]-5-chloro-2-hydroxybenzamide]
Phenotype: Period lengthening [1]: Period lengthening, 1.84 ± 0.192 h

CC(C)c1[nH]n(-c2c(Cl)cccc2Cl)c2nc(Cc3ccc(OCCO)cc3)nc(=O)c1-2 [Cdk/crk inhibitor, 1-(2,6-dichlorophenyl)-6-[[4-(2-hydroxyethoxy)phenyl]methyl]-3-propan-2-yl-2H-pyrazolo[3,4-d]pyrimidin-4-one]
Phenotype: phase of the circadian rhythm [1]: delay | Phenotype: Period shortening [1, 4]: Period shortening, 0.5 ± 0.074 h; phase

CCc1cnn2c(NCc3ccc[n+]([O-])c3)cc(N3CCCC[C@H]3CCO)nc12 [Dinaciclib]
Phenotype: Period shortening [1, 4]: Period shortening, 0.6 ± 0.050 h; phase | Phenotype: Period shortening ([1]; applied from the beginning of the assay, listed as dinaciclib): 0.6 h | Increase of amplitude [1, 4]: 1.78 fold | Phase delay ([2]; applied at CT6, p<0.001, n=5): 7.543 ± 0.6185 h | Phase delay ([2]; applied at CT12, p<0.0001, n=5): 5.808 ± 0.5455 h | Phase delay ([2]; applied at CTO, p<0.01, n=5): 4.092 ± 0.9062 h | Phase advance ([2]; introduced at CT18): 1.7 ± 0.81 h | Phase advance of SCN explants [3]: 2.488 ± 0.7391 h

COc1cc2ncn(-c3cc(OCc4ccccc4S(C)(=O)=O)c(C#N)s3)c2cc1OC [Cay10576]
Phenotype: phase of the circadian rhythm [1]: delay | Phenotype: Period shortening [1, 4]: Period shortening, 0.3 ± 0.060 h; phase | Phenotype: Period shortening ([1]; applied from the beginning of the assay, listed as Cayl0576): 0.3 h

Reference: patent publication US20200009134A1, “Method and Compound for Modifying Circadian Clock” (Gritscience Biopharmaceuticals Co., Ltd., priority 2017, published 2020)
